From the NIST ThermoML archive (doi:10.1016/j.jct.2013.09.035)

Settings: Liquid, Vibrating tube method

CCOC(F)(C(F)(F)C(F)(F)C(F)(F)F)C(F)(C(F)(F)F)C(F)(F)F (centres undefined) [2-trifluoromethyl-3-ethoxydodecafluorohexane]
Settings	mass density [kg/m3]
283.48 K, 60000 kPa	1751.01
283.49 K, 3000 kPa	1658.1
283.49 K, 50000 kPa	1737.96
283.49 K, 70000 kPa	1762.23
283.5 K, 5000 kPa	1662.38
283.5 K, 10000 kPa	1672.98
283.5 K, 30000 kPa	1709.09
283.5 K, 40000 kPa	1724.44
283.5 K, 80000 kPa	1773.1
283.5 K, 90000 kPa	1783.39
283.51 K, 100 kPa	1652.11
283.51 K, 1000 kPa	1653.72
283.51 K, 15000 kPa	1682.71
283.51 K, 20000 kPa	1691.9
283.51 K, 25000 kPa	1701.13
283.52 K, 100000 kPa	1793.19
293.04 K, 40000 kPa	1708.75
293.04 K, 50000 kPa	1723.04
293.04 K, 70000 kPa	1748.33
293.04 K, 90000 kPa	1770.03
293.04 K, 100000 kPa	1780.11
293.05 K, 100 kPa	1631.62
293.05 K, 1000 kPa	1633.93
293.05 K, 3000 kPa	1638.93
293.05 K, 5000 kPa	1643.69
293.05 K, 10000 kPa	1654.94
293.05 K, 15000 kPa	1665.37
293.05 K, 20000 kPa	1675.05
293.05 K, 25000 kPa	1684.16
293.05 K, 30000 kPa	1692.79
293.05 K, 60000 kPa	1736.39
293.05 K, 80000 kPa	1759.65
302.88 K, 100 kPa	1610.41
302.88 K, 1000 kPa	1612.92
302.88 K, 3000 kPa	1618.33
302.88 K, 10000 kPa	1635.7
302.88 K, 60000 kPa	1721.46
302.89 K, 5000 kPa	1623.52
302.89 K, 15000 kPa	1646.85
302.89 K, 20000 kPa	1657.18
302.89 K, 25000 kPa	1666.89
302.89 K, 30000 kPa	1676.01
302.89 K, 40000 kPa	1692.64
302.89 K, 50000 kPa	1707.74
302.89 K, 70000 kPa	1733.98
302.89 K, 80000 kPa	1745.75
302.89 K, 90000 kPa	1756.68
302.89 K, 100000 kPa	1767.03
313.15 K, 90000 kPa	1744.34
313.16 K, 3000 kPa	1598.14
313.16 K, 15000 kPa	1628.94
313.16 K, 20000 kPa	1639.8
313.16 K, 30000 kPa	1659.7
313.16 K, 40000 kPa	1677.38
313.16 K, 60000 kPa	1707.63
313.17 K, 100 kPa	1589.56
313.17 K, 1000 kPa	1592.21
313.17 K, 10000 kPa	1616.81
313.17 K, 25000 kPa	1650.1
313.17 K, 50000 kPa	1693.17
313.17 K, 70010 kPa	1720.7
313.17 K, 80000 kPa	1733
313.17 K, 100000 kPa	1755.06
313.18 K, 5000 kPa	1603.66
323.04 K, 5000 kPa	1585.04
323.04 K, 10000 kPa	1599.21
323.04 K, 15000 kPa	1612.03
323.04 K, 20000 kPa	1623.79
323.04 K, 25000 kPa	1634.67
323.04 K, 30000 kPa	1644.88
323.04 K, 40000 kPa	1663.35
323.04 K, 50000 kPa	1679.91
323.04 K, 60000 kPa	1694.93
323.04 K, 70000 kPa	1708.52
323.04 K, 80000 kPa	1721.13
323.04 K, 90000 kPa	1732.9
323.04 K, 100000 kPa	1743.96
323.05 K, 1000 kPa	1572.54
323.05 K, 3000 kPa	1578.97
323.06 K, 100 kPa	1569.59
332.94 K, 15000 kPa	1591.88
332.94 K, 20000 kPa	1604.4
332.94 K, 25000 kPa	1615.92
332.94 K, 30000 kPa	1626.63
332.94 K, 40000 kPa	1646.05
332.94 K, 50000 kPa	1663.31
332.94 K, 60000 kPa	1678.97
332.94 K, 70000 kPa	1693.19
332.94 K, 80000 kPa	1706.27
332.94 K, 90000 kPa	1718.48
332.94 K, 100000 kPa	1729.78
332.95 K, 3000 kPa	1556.26
332.95 K, 5000 kPa	1562.89
332.95 K, 10000 kPa	1578.13
332.96 K, 1000 kPa	1549.29
332.97 K, 100 kPa	1546.01
342.55 K, 100 kPa	1525.56
342.56 K, 1000 kPa	1529.11
342.56 K, 3000 kPa	1536.69
342.56 K, 5000 kPa	1543.86
342.56 K, 10000 kPa	1560.31
342.57 K, 15000 kPa	1574.95
342.57 K, 20000 kPa	1588.2
342.57 K, 25000 kPa	1600.4
342.57 K, 30000 kPa	1611.69
342.57 K, 40000 kPa	1632.02
342.57 K, 50000 kPa	1650.06
342.57 K, 60000 kPa	1666.29
342.57 K, 70000 kPa	1680.92
342.57 K, 80000 kPa	1694.39
342.57 K, 90000 kPa	1706.96
342.57 K, 100000 kPa	1718.69
352.56 K, 100 kPa	1503.72
352.56 K, 1000 kPa	1507.64
352.57 K, 3000 kPa	1515.99
352.57 K, 5000 kPa	1523.8
352.57 K, 10000 kPa	1541.62
352.57 K, 15000 kPa	1557.31
352.57 K, 20000 kPa	1571.45
352.57 K, 25000 kPa	1584.35
352.57 K, 30000 kPa	1596.28
352.57 K, 40000 kPa	1617.61
352.57 K, 50000 kPa	1636.45
352.57 K, 70000 kPa	1668.54
352.58 K, 60000 kPa	1653.3
352.58 K, 80000 kPa	1682.53
352.58 K, 90000 kPa	1695.44
352.58 K, 100000 kPa	1707.52
362.59 K, 5000 kPa	1503.25
362.59 K, 10000 kPa	1522.52
362.59 K, 15000 kPa	1539.4
362.6 K, 100 kPa	1481.19
362.6 K, 1000 kPa	1485.52
362.6 K, 3000 kPa	1494.68
362.6 K, 20000 kPa	1554.46
362.6 K, 25000 kPa	1568.1
362.6 K, 30000 kPa	1580.67
362.6 K, 40000 kPa	1603.06
362.6 K, 50000 kPa	1622.7
362.6 K, 60000 kPa	1640.27
362.6 K, 70000 kPa	1656.03
362.6 K, 80000 kPa	1670.49
362.6 K, 90000 kPa	1683.83
362.6 K, 100000 kPa	1696.22
